Assay results taken from patent US20040152750A1, “Novel glucagon antagonists” (priority 2002, published 2004).

Structure (SMILES): O=C(O)CCNC(=O)c1ccc(N(Cc2ccc(C3=CCCCC3)cc2)C(=O)/C=C/c2cccc(OC(F)(F)F)c2)cc1 [Example 211, 3-(4-{(4-Cyclohex-1-enylbenzyl)-[3-(3-trifluoromethoxyphenyl)acryloyl]amino}benzoylamino) -propionic acid]
- melting point: 178 to 180 °C
